The target of the experiment is T1, Protein-glutamine gamma-glutamyltransferase 2 (Cavia cutleri, UniProt P08587).
T1 sequence (P08587 whole entry): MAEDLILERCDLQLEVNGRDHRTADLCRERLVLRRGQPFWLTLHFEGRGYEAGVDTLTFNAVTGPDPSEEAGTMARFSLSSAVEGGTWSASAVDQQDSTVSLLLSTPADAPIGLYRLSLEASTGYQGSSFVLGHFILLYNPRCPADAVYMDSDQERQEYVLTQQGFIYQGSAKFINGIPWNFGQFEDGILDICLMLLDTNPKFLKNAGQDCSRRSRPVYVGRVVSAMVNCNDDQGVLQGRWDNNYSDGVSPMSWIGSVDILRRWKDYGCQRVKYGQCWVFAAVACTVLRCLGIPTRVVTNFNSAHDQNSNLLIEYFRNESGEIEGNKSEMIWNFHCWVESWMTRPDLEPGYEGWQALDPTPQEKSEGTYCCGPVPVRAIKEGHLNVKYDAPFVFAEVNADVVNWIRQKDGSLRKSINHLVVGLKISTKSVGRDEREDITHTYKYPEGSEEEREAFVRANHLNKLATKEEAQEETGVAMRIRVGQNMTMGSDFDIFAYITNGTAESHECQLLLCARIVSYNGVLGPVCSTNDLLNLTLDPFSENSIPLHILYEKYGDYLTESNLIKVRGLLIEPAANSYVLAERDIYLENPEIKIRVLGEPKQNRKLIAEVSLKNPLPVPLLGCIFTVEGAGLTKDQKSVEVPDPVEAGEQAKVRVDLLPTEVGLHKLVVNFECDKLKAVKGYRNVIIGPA
The experiment in a line: Enzyme Inhibition Assay: For enzymology studies of these compounds, recombinant guinea pig liver TGase was expressed in Escherichia coli and effectively purified (Gillet, S. M. F. G. et al J. N., Prot. Exp. & Purif. 2004, 33, 256). […] The mode of inhibition was determined for the representative lead compound.

SMILES strings stand for the structures. pIC50: −log10 of the molar value. Bounds are passed on as bounds.

The term pIC50 denotes the negative decadic logarithm of the IC50, by convention in mol/L. On to `O=C(/C=C/c1ccc([N+](=O)[O-])cc1)n1ccnc1`, for which the negative-log IC50 (pIC50) was less than 4.70.
To `O=C(/C=C/c1ccc([N+](=O)[O-])cc1)NCc1ccccc1` belongs less than 4.30.

The values are drawn from ChEMBL document CHEMBL3886297, “Cinnamoyl inhibitors of transglutaminase” (2015).
